Consider 2 compounds from paper PMC5201303, “Comparison of Enzymatic Traits between Native and Recombinant Glycine Sarcosine N-Methyltransferase from Methanohalophilus portucalensis FDF1^T” (PLoS ONE, 2016).

A word on the remaining activity: it is the signal under treatment as a percentage of the control signal. Read a high remaining activity as a small loss of activity.

The target of test [1] is T1, native GSMT (glycine sarcosine N-methyltransferase) (Methanohalophilus portucalensis, UniProt F6KV61).
T1 construct: monomer and dimer fractions pooled
T1 sequence (F6KV61 1-263): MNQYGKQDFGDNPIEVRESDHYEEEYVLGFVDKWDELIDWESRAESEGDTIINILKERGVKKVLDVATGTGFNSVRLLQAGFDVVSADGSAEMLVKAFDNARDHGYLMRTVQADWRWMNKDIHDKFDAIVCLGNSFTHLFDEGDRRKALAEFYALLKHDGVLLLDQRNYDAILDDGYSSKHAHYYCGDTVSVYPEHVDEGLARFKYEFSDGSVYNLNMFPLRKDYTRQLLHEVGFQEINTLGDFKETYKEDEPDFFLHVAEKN
Description: radiometric [methyl-3H]-SAM methyl transfer, charcoal separation. The conditions noted are these: read-out: I50. It is filed as biochemical.

For test [2], the target named is T1, native GSMT (glycine sarcosine N-methyltransferase). The description is as above. It is filed as biochemical.

With `Nc1ncnc2c1ncn2[C@@H]1O[C@H](CSCC[C@H](N)C(=O)O)[C@@H](O)[C@H]1O` [SAH, S-adenosylhomocysteine], the IC50 in test [1] stood at 50 µM.
Turning to `C[N+](C)(C)CC(=O)[O-]` [betaine], the remaining activity at 1 M in test [2] stood at 43%.
